# Results from patent US9266834B2, “1, 4-disubstituted 3-cyano-pyridone derivatives and their use as positive allosteric modulators of MGLUR2-receptors” (JANSSEN PHARMACEUTICALS, INC., priority 2006, dated 2016).
# Molecular target: T1, human mGluR2 receptor (Homo sapiens, UniProt Q14416)
# T1 construct: expressed in transfected cells; host or cells: CHO cells (membrane preparation)
# Experiment: [35S]GTPγS binding assay (GTPγS-PAM): positive allosteric modulation in presence of glutamate at EC25, membranes from transfected CHO cells
# Type: biochemical
# Conditions: in presence of mGluR2 agonist glutamate at predetermined EC25 concentration, averages of duplicate values of 11-concentration response curves
# Excerpt: The compounds provided in the present invention are positive allosteric modulators of mGluR2. These compounds appear to potentiate glutamate responses by binding to an allosteric site other than the glutamate binding site. The response of mGluR2 to a concentration of glutamate is increased when compounds of Formula (I) are present. Compounds of Formula (I) are expected to have their effect substantially at mGluR2 by virtue of their ability to enhance the function of the receptor. The behaviour of positive allosteric modulators tested at mGluR2 using the [^35S]GTPγS binding assay method described below and which is suitable for the identification of such compounds, and more particularly the compounds according to Formula (I), are shown in Table 4.
# [^35S]GTPγS Binding Assay
# The [^35S]GTPγS binding is a functional membrane-based assay used to study G-protein coupled receptor (GPCR) function whereby incorporation of a non-hydrolysable form of GTP, [^35S]GTPγS (guanosine 5′-triphosphate, labelled with […] ^35S), is measured. The G-protein o subunit catalyzes the exchange of guanosine 5′-diphosphate (GDP) by guanosine triphosphate (GTP) and on activation of the GPCR by an agonist, [^35S]GTPγS, becomes incorporated and cannot be cleaved to continue the exchange cycle (Harper (1998) Current Protocols in Pharmacology 2.6.1-10, John Wiley & Sons, Inc.). […] Here we describe the use of the [^35S]GTPγS binding assay using membranes from cells transfected with the human mGluR2 receptor and adapted from Schaffhauser et al ((2003) Molecular Pharmacology 4:798-810) for the detection of the positive allosteric modulation (PAM) properties of the compounds of this invention.
# CHO-cells were cultured to pre-confluence and stimulated with 5 mM butyrate for 24 hours, prior to washing in PBS, and then collection by scraping in homogenisation buffer (50 mM Tris-HCl buffer, pH 7.4, 4° C.). Cell lysates were homogenized briefly (15 s) using an ultra-turrax homogenizer. The homogenate was centrifuged at 23 500×g for 10 minutes and the supernatant discarded. The pellet was resuspended in 5 mM Tris-HCl, pH 7.4 and centrifuged again (30 000×g, 20 min, 4° C.). The final pellet was resuspended in 50 mM HEPES, pH 7.4 and stored at −80° C. in appropriate aliquots before use. Protein concentration was determined by the Bradford method (Bio-Rad, USA) with bovine serum albumin as standard.
# Measurement of mGluR2 positive allosteric modulators in membranes containing human mGluR2 was performed using frozen membranes that were thawed and briefly homogenised prior to pre-incubation in 96-well microplates (15 μg/assay well, 30 minutes, 30° C.) in assay buffer (50 mM HEPES pH 7.4, 100 mM NaCl, 3 mM MgCl2, 50 μM GDP, 10 μg/ml saponin,) with increasing concentrations of positive allosteric modulator (from 0.3 nM to 50 μM) and either a minimal pre-determined concentration of glutamate (PAM assay), or no added glutamate. For the PAM assay, membranes were pre-incubated with glutamate at EC25 concentration, i.e. a concentration that gives 25% of the maximal response glutamate, and is in accordance to published data (Pin et al. (1999) Eur. J. Pharmacol. 375:277-294). After addition of [^35S]GTPγS (0.1 nM, f.c.) to achieve a total reaction volume of 200 μl, microplates were shaken briefly and further incubated to allow [^35S]GTPγS incorporation on activation (30 minutes, 30° C.). The reaction was stopped by rapid vacuum filtration over glass-fibre filter plates (Unifilter 96-well GF/B filter plates, Perkin-Elmer, Downers Grove, USA) microplate using a 96-well plate cell harvester (Filtermate, Perkin-Elmer, USA), and then by washing three times with 300 μl of ice-cold wash buffer (Na2PO4.2H2O 10 mM, NaH2PO4.H2O 10 mM, pH=7.4). Filters were then air-dried, and 40 μl of liquid scintillation cocktail (Microscint-O) was added to each well, and membrane-bound [^35S]GTPγS was measured in a 96-well scintillation plate reader (Top-Count, Perkin-Elmer, USA). […]
# T1 sequence (Q14416 19-872): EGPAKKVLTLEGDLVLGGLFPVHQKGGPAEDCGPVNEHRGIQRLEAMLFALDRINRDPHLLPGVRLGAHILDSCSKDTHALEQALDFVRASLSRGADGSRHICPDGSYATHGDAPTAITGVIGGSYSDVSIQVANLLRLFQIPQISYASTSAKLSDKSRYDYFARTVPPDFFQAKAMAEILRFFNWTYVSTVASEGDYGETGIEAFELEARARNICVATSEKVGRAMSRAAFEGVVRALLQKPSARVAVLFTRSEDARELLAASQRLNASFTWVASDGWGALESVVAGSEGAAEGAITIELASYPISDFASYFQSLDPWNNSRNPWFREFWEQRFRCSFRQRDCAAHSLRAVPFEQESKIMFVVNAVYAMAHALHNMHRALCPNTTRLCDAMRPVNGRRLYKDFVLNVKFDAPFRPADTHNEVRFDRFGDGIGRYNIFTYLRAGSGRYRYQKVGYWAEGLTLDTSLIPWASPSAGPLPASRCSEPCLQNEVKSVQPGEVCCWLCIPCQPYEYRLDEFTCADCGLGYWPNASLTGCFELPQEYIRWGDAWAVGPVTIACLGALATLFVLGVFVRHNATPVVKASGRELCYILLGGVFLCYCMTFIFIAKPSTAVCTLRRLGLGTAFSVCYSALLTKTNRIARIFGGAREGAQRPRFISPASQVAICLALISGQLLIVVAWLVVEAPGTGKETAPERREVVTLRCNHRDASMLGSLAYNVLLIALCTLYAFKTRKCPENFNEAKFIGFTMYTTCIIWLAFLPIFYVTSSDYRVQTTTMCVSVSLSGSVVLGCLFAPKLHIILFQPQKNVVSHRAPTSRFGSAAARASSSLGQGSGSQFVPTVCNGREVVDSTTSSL
row,Compound,GTPgS - hR2 PAM pEC50
1,CCCCn1ccc(N2CCN(c3nc(C)cc(C)n3)CC2)c(C#N)c1=O [2-005],6.2

# Same assay, conditions: in presence of mGluR2 agonist glutamate at predetermined EC25 concentration, averages of duplicate values of 11-concentration response curves, read-out: GTPgS - hR2 PAM pEC50 (converted)
row,Compound,EC50
1,CC(C)CCn1ccc(-c2ccc(COc3ccncc3)cc2)c(C#N)c1=O [1-160],631 nM
2,COc1cc(-c2ccn(CCC(C)C)c(=O)c2C#N)ccc1OCc1ccncc1 [1-167],501 nM
3,CC(C)Oc1ccc(-c2ccn(CCOc3ccccc3)c(=O)c2C#N)cc1Cl [1-049],126 nM
4,CC(C)CCn1ccc(-c2ccc(N)cc2)c(C#N)c1=O [1-170],794 nM
5,CC(C)CCn1ccc(N2CCC(C(F)(F)F)CC2)c(C#N)c1=O [4-010],2000 nM
6,N#Cc1c(N2CCN(Cc3ccccc3)CC2)ccn(Cc2ccc(OC(F)(F)F)cc2)c1=O [2-042],631 nM
7,CC(C)CCn1ccc(C=Cc2ccccc2)c(C#N)c1=O [1-261],200 nM
8,CC(=O)CCNc1ccc(-c2ccn(CCC(C)C)c(=O)c2C#N)cc1 [1-180],316 nM
9,CC(C)CCn1ccc(-c2ccc(OCCF)c(Cl)c2)c(C#N)c1=O [1-121],501 nM
10,CC(C)CCn1ccc(-c2ccc(NC3CC3)cc2)c(C#N)c1=O [1-187],126 nM
11,Cc1cc(OCC2CCN(c3ccn(Cc4ccc(OC(F)(F)F)cc4)c(=O)c3C#N)CC2)ccn1 [4-052],631 nM
12,CC(C)CCn1ccc(Oc2ccccc2)c(C#N)c1=O [1-274],1580 nM
13,CC(C)CCn1ccc(-c2ccc(-c3cnco3)cc2)c(C#N)c1=O [1-250],1580 nM
14,CN(Cc1cccc(C(F)(F)F)c1)C1CCN(c2ccn(CCOc3ccccc3)c(=O)c2C#N)CC1 [4-065],31.6 nM
15,CC(C)CCn1ccc(-c2ccc3c(c2)OCCO3)c(C#N)c1=O [1-253],501 nM
16,CCCCn1ccc(N2CCN(c3ccccn3)CC2)c(C#N)c1=O [2-004],2000 nM
17,CC(=O)COc1ccc(-c2ccn(CCC(C)C)c(=O)c2C#N)cc1 [1-118],2000 nM
18,CC(C)CCn1ccc(N2CCN(c3ccccc3)CC2)c(C#N)c1=O [2-011],501 nM
19,CC(=O)Nc1ccc(-c2ccn(CCC(C)C)c(=O)c2C#N)cc1F [1-201],3980 nM
20,CC(C)CCn1ccc(N2CCN(C/C=C/c3ccccc3)CC2)c(C#N)c1=O [2-018],2510 nM
21,CC(C)CCn1ccc(OCc2ccc(C(F)(F)F)cc2)c(C#N)c1=O [1-277],251 nM
22,CCCCn1ccc(OC2CCN(Cc3cccc(C(F)(F)F)c3)CC2)c(C#N)c1=O [3-002],1260 nM
23,CC(C)CCn1ccc(OCCOc2ccccc2)c(C#N)c1=O [1-280],1580 nM

row,Compound,EC50
1,Cc1c(-c2ccn(CCC(C)C)c(=O)c2C#N)cnn1-c1ccccc1 [5-027],316 nM
2,COc1ccc(-c2ccn(Cc3cccc(C)c3)c(=O)c2C#N)cc1 [1-017],1000 nM
3,N#Cc1c(N2CCC(N3CCc4ccccc4C3)CC2)ccn(Cc2ccc(OC(F)(F)F)cc2)c1=O [4-051],501 nM
4,N#Cc1c(-c2ccccc2)ccn(CCOc2ccccc2)c1=O [1-047],2510 nM
5,N#Cc1c(-c2ccc(Oc3ccnc(N4CCCCC4)c3)cc2)ccn(CC2CC2)c1=O [1-006],316 nM
6,COc1ccc(C=Cc2ccn(CCC(C)C)c(=O)c2C#N)cc1 [1-266],316 nM
7,CC(C)CCn1ccc(-c2ccc(Nc3ccncc3)cc2)c(C#N)c1=O [1-208],1260 nM
8,CC(C)CCn1ccc(N2CCc3c(sc4ccc(Cl)cc34)C2)c(C#N)c1=O [5-042],200 nM
9,CCCCn1ccc(N2CCN(c3cnc(N4CCOCC4)nc3)CC2)c(C#N)c1=O [2-009],6310 nM
10,CC(C)CCn1ccc(-c2ccc(N3CCN(c4ccncc4)CC3)cc2)c(C#N)c1=O [1-234],1260 nM
11,Cc1ccc(N2CCN(c3ccn(CCC(C)C)c(=O)c3C#N)CC2)nc1 [2-025],794 nM
12,CC(C)CCn1ccc(N2CCC(CN(C)Cc3ccc(F)cc3)CC2)c(C#N)c1=O [4-030],1260 nM
13,CC(=O)NCCNc1ccc(-c2ccn(CCC(C)C)c(=O)c2C#N)cc1 [1-182],3160 nM
14,CCCCn1ccc(OCc2ccc(-c3cccc(C)n3)cc2)c(C#N)c1=O [1-306],3980 nM
15,CC(C)CCn1ccc(N2CCC3(CC2)COc2ccccc2O3)c(C#N)c1=O [5-036],251 nM
16,COc1ccc(COc2ccn(CCC(C)C)c(=O)c2C#N)cc1F [1-283],794 nM
17,CC(C)CCn1ccc(-c2ccc(OCc3ccccc3)cc2)c(C#N)c1=O [1-141],63.1 nM
18,CC(C)CCn1ccc(-c2ccc(CNCc3ccccc3F)cc2)c(C#N)c1=O [1-198],1260 nM
19,CC(C)CCn1ccc(OCc2ccc(SC(F)(F)F)cc2)c(C#N)c1=O [1-287],63.1 nM
20,CCCCn1ccc(N2CCC(CCOc3cccnc3)CC2)c(C#N)c1=O [4-008],1580 nM
21,CC(C)CCn1ccc(N2CCC(NCc3cccc(C(F)(F)F)c3)CC2)c(C#N)c1=O [4-024],6310 nM
22,CCCCn1ccc(-c2cccc(Oc3ccccn3)c2)c(C#N)c1=O [1-061],6310 nM
23,CC(C)CCn1ccc(-c2ccc(NC3CCCCC3)cc2)c(C#N)c1=O [1-188],50.1 nM

row,Compound,EC50
1,CC(C)CCn1ccc(N2CCC(Cc3ccccc3)CC2)c(C#N)c1=O [4-015],100 nM
2,COc1ccc(-c2ccn(CC3CCCCC3)c(=O)c2C#N)cc1 [1-012],398 nM
3,CC(C)CCn1ccc(N2CCCC(c3ccccc3)C2)c(C#N)c1=O (stereo not drawn) [4-013],2000 nM
4,N#Cc1c(N2CCC(c3ccccc3)CC2)ccn(CCOc2ccccc2)c1=O [4-066],31.6 nM
5,CC(C)CCn1ccc(-c2ccc(OCc3ccncc3)c(Cl)c2)c(C#N)c1=O [1-165],79.4 nM
6,CC(C)CCn1ccc(-c2ccc(OCCOC3CCCCO3)cc2)c(C#N)c1=O (stereo not drawn) [1-137],1000 nM
7,CC(C)CCn1ccc(-c2cccc3[nH]ccc23)c(C#N)c1=O [5-017],794 nM
8,Cc1nc(-c2ccccc2)sc1-c1ccn(CCC(C)C)c(=O)c1C#N [5-028],316 nM
9,CC(C)CCn1ccc(-c2ccc3c(c2)CCN3)c(C#N)c1=O [5-014],2000 nM
10,N#Cc1c(N2CCN(Cc3ccccc3)CC2)ccn(Cc2ccc(F)cc2)c1=O [2-049],1580 nM
11,COc1cc(-c2ccn(CCC(C)C)c(=O)c2C#N)ccc1OCc1ccccc1 [1-142],316 nM
12,CC(=O)N1CCN(c2ccc(-c3ccn(CCC(C)C)c(=O)c3C#N)cc2)CC1 [1-231],1580 nM
13,CC(C)CCn1ccc(-c2ccc(Cl)s2)c(C#N)c1=O [1-083],200 nM
14,COc1cc(-c2ccn(CCC(C)C)c(=O)c2C#N)ccc1O [1-108],6310 nM
15,COc1ccc(N2CCN(c3ccn(CCC(C)C)c(=O)c3C#N)CC2)cc1 [2-013],794 nM
16,CC(C)CCn1ccc(CCc2ccccc2)c(C#N)c1=O [1-260],1260 nM
17,CCOc1ccc(-c2ccn(CCC(C)C)c(=O)c2C#N)cc1 [1-104],2000 nM
18,CC(C)CCn1ccc(N2CCC(N(C)Cc3ccccc3)CC2)c(C#N)c1=O [4-026],1580 nM
19,COC1(c2ccccc2)CCN(c2ccn(CCC(C)C)c(=O)c2C#N)CC1 [4-045],126 nM
20,CN(Cc1ccccc1)C1CCN(c2ccn(Cc3ccc(F)cc3)c(=O)c2C#N)CC1 [4-056],5010 nM
21,COc1cc(-c2ccn(CCC(C)C)c(=O)c2C#N)ccc1OCCO [1-109],5010 nM
22,N#Cc1c(-c2ccc(Oc3ccnc(N4CCCC4)c3)cc2)ccn(CC2CC2)c1=O [1-005],398 nM
